Patent publication US20240051985A1, “METTL3 MODULATORS” (ACCENT THERAPEUTICS, INC., priority 2020, published 2024)
pIC50: −log10 of the molar value.

molecular target: PRMT5-MEP50 (Homo sapiens, UniProt O14744); assay: PRMT5 assay (3H-SAM flashplate); details: Table 3; PRMT5 biochemical assay
Procedure: Assays were performed in a 25 μl-volume in 384-well V-bottom polypropylene microplates (Greiner Bio-One, cat. No. 781280) at ambient temperature. Optimized 1× assay buffer was 20 mM Tris-HCl pH 8.0, 1 mM DTT, […]. For compound screening PRMT5-MEP50 (final concentration, f.c.=2.5 nM) was added using a Multidrop Combi (ThermoFisher Scientific, Waltham, MA) and preincubated for 5 min. Reactions were started by adding 3′ biotinylated histone H4 peptide acetylated on serine 1 (Ac-[…]-Biotin) (f.c.=100 nM) and 3H-SAM (f.c.=250 nM) substrates. Reactions proceeded for 60 minutes and were quenched with excess non-radioactive SAM (f.c.=15 μM). The reactions were then transferred to streptavidin-coated flashplates and incubated for 2 hours at 25° C. Following two washing cycles with 0.1% Tween-20, the plates were sealed and read on a TopCount (PerkinElmer, Waltham, MA) plate-based scintillation counter. For determination of kinetic parameters, reaction times were optimized so that measurements were taken during the initial velocity phase of the reaction.

Chain of PRMT5-MEP50 (O14744 whole entry): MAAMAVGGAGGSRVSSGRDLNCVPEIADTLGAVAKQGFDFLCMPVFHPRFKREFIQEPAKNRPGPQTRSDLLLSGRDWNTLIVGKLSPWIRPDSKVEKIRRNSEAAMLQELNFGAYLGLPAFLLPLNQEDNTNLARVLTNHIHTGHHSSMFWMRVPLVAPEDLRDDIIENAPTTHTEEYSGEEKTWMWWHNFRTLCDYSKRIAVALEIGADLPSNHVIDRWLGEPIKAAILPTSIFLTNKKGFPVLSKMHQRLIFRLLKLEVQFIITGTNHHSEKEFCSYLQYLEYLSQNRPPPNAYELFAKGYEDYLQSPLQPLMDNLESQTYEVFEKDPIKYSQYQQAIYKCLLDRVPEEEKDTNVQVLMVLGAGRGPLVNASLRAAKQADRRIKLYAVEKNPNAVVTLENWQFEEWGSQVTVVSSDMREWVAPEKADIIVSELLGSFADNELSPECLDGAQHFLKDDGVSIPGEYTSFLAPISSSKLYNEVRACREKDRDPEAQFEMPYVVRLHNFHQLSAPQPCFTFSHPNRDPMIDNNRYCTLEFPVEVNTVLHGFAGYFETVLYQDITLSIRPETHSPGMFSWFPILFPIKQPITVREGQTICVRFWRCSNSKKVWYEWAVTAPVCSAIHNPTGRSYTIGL
Chain of PRMT5-MEP50 (Q9BQA1 whole entry partner): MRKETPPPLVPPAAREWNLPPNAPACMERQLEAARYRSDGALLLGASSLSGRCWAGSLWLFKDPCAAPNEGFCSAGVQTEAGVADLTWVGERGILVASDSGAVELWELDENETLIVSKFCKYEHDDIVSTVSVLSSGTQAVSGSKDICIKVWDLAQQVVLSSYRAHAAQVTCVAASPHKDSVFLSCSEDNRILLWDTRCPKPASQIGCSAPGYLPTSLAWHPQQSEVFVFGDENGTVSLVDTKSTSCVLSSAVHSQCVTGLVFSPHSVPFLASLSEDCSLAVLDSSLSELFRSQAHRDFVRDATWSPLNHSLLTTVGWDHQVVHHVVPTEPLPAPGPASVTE

| SMILES | pIC50 |
| --- | --- |
| Cn1ccc(-c2cn([C@@H]3O[C@H](C(=O)NC4CCNCC4)[C@@H](O)[C@H]3O)c3ncnc(N)c23)n1 [Compound I-1, (2S,3S,4R,5R)-5-[4-amino-5-(1-methyl-1H-pyrazol-3-yl)-7H-pyrrolo[2,3-d]pyrimidin-7-yl]-3,4-dihydroxy-N-(piperidin-4-yl)oxolane-2-carboxamide] | ≤ 6.00 |
| Cn1ccc(-c2cn([C@@H]3O[C@H](C(=O)NCC4CCNCC4)[C@@H](O)[C@H]3O)c3ncnc(N)c23)n1 [Compound I-2] | 7.00 to 8.00 |
| COCCNC(=O)[C@H]1O[C@@H](n2cc(-c3ccn(C)n3)c3c(N)ncnc32)[C@H](O)[C@@H]1O [Compound I-3] | ≤ 6.00 |
| CN(C)CCNC(=O)[C@H]1O[C@@H](n2cc(-c3ccn(C)n3)c3c(N)ncnc32)[C@H](O)[C@@H]1O [Compound I-4] | 7.00 to 8.00 |
| COCCCN(C)C(=O)[C@H]1O[C@@H](n2cc(-c3ccn(C)n3)c3c(N)ncnc32)[C@H](O)[C@@H]1O [Compound I-5] | ≤ 6.00 |
| COCCN(C(=O)[C@H]1O[C@@H](n2cc(-c3ccn(C)n3)c3c(N)ncnc32)[C@H](O)[C@@H]1O)C1CCNCC1 [Compound I-6] | > 8.00 |
| COCCCN(C(=O)[C@H]1O[C@@H](n2cc(-c3ccn(C)n3)c3c(N)ncnc32)[C@H](O)[C@@H]1O)C1CCNCC1 [Compound I-7] | 7.00 to 8.00 |
| Cn1ccc(-c2cn([C@@H]3O[C@H](C(=O)N(CCCO)C4CCNCC4)[C@@H](O)[C@H]3O)c3ncnc(N)c23)n1 [Compound I-8] | > 8.00 |

molecular target: METTL3/METTL14 (Homo sapiens, UniProt Q86U44); assay: METTL3-14 standard enzyme assay (3H-SAM flashplate); details: Table 3; METTL3 biochemical assay
Procedure: METTL3-14 Standard Enzyme Assay
Assays were performed in a 25 μl-volume in 384-well V-bottom polypropylene microplates (Greiner Bio-One, cat. No. 781280) at ambient temperature. Optimized 1× assay buffer was 20 mM HEPES pH 7.5, 50 mM KCl, 250 μM MgCl2, 1 mM DTT, 0.01% Tween, 0.01% BSG, 0.004 U/μl RNAseOUT (cat. No. 10777019, ThermoFisher Scientific, Waltham, MA). For compound screening METTL3/METTL14 (final concentration, f.c.=2.5 nM) was added using a Multidrop Combi (ThermoFisher Scientific, Waltham, MA) and preincubated for 5 min. Reactions were started by adding 3′ biotinylated RNA (UCUGGACUAAA-biotin) (f.c.=100 nM) and 3H-SAM (f.c.=100 nM) substrates. Reactions proceeded for 30 minutes and were quenched with excess non-radioactive SAM (f.c.=15 μM). The reactions were then transferred to streptavidin-coated flashplates and incubated for 2 hours at 25° C. Following two washing cycles with 0.1% Tween-20, the plates were sealed and read on a TopCount (PerkinElmer, Waltham, MA) plate-based scintillation counter. For determination of kinetic parameters, reaction times were optimized so that measurements were taken during the initial velocity phase of the reaction.

Chain of METTL3/METTL14 (Q86U44 whole entry, species assumed): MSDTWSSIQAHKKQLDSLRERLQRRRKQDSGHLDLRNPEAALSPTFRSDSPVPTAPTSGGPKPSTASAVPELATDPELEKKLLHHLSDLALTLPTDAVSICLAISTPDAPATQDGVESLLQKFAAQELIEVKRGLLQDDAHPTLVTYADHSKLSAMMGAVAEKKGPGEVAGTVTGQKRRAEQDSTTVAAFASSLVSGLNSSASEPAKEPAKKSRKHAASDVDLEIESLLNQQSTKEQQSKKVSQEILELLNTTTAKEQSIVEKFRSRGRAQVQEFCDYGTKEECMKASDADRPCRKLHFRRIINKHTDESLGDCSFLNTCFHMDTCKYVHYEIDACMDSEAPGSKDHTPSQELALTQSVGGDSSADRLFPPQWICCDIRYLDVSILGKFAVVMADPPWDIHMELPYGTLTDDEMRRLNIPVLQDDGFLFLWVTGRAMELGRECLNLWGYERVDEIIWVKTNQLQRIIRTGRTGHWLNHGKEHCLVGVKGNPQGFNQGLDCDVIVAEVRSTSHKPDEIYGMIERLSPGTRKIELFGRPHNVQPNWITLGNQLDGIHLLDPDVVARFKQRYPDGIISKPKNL
Chain of METTL3/METTL14 (Q9HCE5 whole entry partner, species assumed): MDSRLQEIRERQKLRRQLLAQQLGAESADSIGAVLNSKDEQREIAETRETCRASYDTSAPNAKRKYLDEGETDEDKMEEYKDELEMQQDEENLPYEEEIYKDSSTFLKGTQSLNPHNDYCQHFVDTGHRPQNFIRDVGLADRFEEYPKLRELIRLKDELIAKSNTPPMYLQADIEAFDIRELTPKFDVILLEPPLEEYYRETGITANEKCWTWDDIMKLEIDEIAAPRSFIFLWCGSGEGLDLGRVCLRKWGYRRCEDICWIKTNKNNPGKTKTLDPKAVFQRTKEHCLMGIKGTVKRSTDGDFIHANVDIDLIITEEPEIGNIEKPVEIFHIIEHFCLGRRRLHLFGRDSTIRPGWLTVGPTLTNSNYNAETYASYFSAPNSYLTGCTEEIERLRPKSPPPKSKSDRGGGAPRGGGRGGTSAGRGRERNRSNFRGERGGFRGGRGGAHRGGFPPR

| SMILES | pIC50 |
| --- | --- |
| Cn1ccc(-c2cn([C@@H]3O[C@H](C(=O)NC4CCNCC4)[C@@H](O)[C@H]3O)c3ncnc(N)c23)n1 [Compound I-1, (2S,3S,4R,5R)-5-[4-amino-5-(1-methyl-1H-pyrazol-3-yl)-7H-pyrrolo[2,3-d]pyrimidin-7-yl]-3,4-dihydroxy-N-(piperidin-4-yl)oxolane-2-carboxamide] | ≤ 6.00 |
| Cn1ccc(-c2cn([C@@H]3O[C@H](C(=O)NCC4CCNCC4)[C@@H](O)[C@H]3O)c3ncnc(N)c23)n1 [Compound I-2] | 6.00 to 7.00 |
| COCCNC(=O)[C@H]1O[C@@H](n2cc(-c3ccn(C)n3)c3c(N)ncnc32)[C@H](O)[C@@H]1O [Compound I-3] | ≤ 6.00 |
| CN(C)CCNC(=O)[C@H]1O[C@@H](n2cc(-c3ccn(C)n3)c3c(N)ncnc32)[C@H](O)[C@@H]1O [Compound I-4] | ≤ 6.00 |
| COCCCN(C)C(=O)[C@H]1O[C@@H](n2cc(-c3ccn(C)n3)c3c(N)ncnc32)[C@H](O)[C@@H]1O [Compound I-5] | ≤ 6.00 |
| COCCN(C(=O)[C@H]1O[C@@H](n2cc(-c3ccn(C)n3)c3c(N)ncnc32)[C@H](O)[C@@H]1O)C1CCNCC1 [Compound I-6] | ≤ 6.00 |
| COCCCN(C(=O)[C@H]1O[C@@H](n2cc(-c3ccn(C)n3)c3c(N)ncnc32)[C@H](O)[C@@H]1O)C1CCNCC1 [Compound I-7] | ≤ 6.00 |
| Cn1ccc(-c2cn([C@@H]3O[C@H](C(=O)N(CCCO)C4CCNCC4)[C@@H](O)[C@H]3O)c3ncnc(N)c23)n1 [Compound I-8] | 6.00 to 7.00 |

same assay, conditions: Table 4; METTL3 biochemical assay

| SMILES | pIC50 |
| --- | --- |
| Cn1ccc(-c2cn([C@@H]3O[C@H](C(=O)NCCCn4ccnc4)[C@@H](O)[C@H]3O)c3ncnc(N)c23)n1 [Compound I-102] | 6.00 to 7.00 |
| Cn1ccc(-c2cn([C@@H]3O[C@H](C(=O)NC4CCC(O)CC4)[C@@H](O)[C@H]3O)c3ncnc(N)c23)n1 (stereo partly shown) [Compound I-103] | 6.00 to 7.00 |
| Cn1cc(NC(=O)[C@H]2O[C@@H](n3cc(-c4ccn(C)n4)c4c(N)ncnc43)[C@H](O)[C@@H]2O)cn1 [Compound I-104] | 6.00 to 7.00 |
| Cn1ccc(-c2cn([C@@H]3O[C@H](C(=O)Nc4cccc(C#N)c4)[C@@H](O)[C@H]3O)c3ncnc(N)c23)n1 [Compound I-105] | 6.00 to 7.00 |
| Cc1cc(CNC(=O)[C@H]2O[C@@H](n3cc(-c4ccn(C)n4)c4c(N)ncnc43)[C@H](O)[C@@H]2O)no1 [Compound I-106] | 6.00 to 7.00 |
| Cn1ccc(-c2cn([C@@H]3O[C@H](C(=O)Nc4ccc(S(=O)(=O)N5CCOCC5)cc4)[C@@H](O)[C@H]3O)c3ncnc(N)c23)n1 [Compound I-107] | 6.00 to 7.00 |
| Cn1ccc(-c2cn([C@@H]3O[C@H](C(=O)NCCc4ccc(C(F)(F)F)cc4)[C@@H](O)[C@H]3O)c3ncnc(N)c23)n1 [Compound I-108] | 6.00 to 7.00 |
| Cn1ccc(-c2cn([C@@H]3O[C@H](C(=O)Nc4ccnn4C)[C@@H](O)[C@H]3O)c3ncnc(N)c23)n1 [Compound I-109] | 6.00 to 7.00 |
| CCCCc1ccc(NC(=O)[C@H]2O[C@@H](n3cc(-c4ccn(C)n4)c4c(N)ncnc43)[C@H](O)[C@@H]2O)cc1 [Compound I-110] | 6.00 to 7.00 |
| Cn1ccc(-c2cn([C@@H]3O[C@H](C(=O)NCCc4ccc(Cl)cc4)[C@@H](O)[C@H]3O)c3ncnc(N)c23)n1 [Compound I-111] | 6.00 to 7.00 |
| Cn1ccc(-c2cn([C@@H]3O[C@H](C(=O)NCCc4ccncc4)[C@@H](O)[C@H]3O)c3ncnc(N)c23)n1 [Compound I-112] | 6.00 to 7.00 |
| Cc1cc(C#N)ccc1NC(=O)[C@H]1O[C@@H](n2cc(-c3ccn(C)n3)c3c(N)ncnc32)[C@H](O)[C@@H]1O [Compound I-113] | 6.00 to 7.00 |
| Cn1ccc(-c2cn([C@@H]3O[C@H](C(=O)Nc4ccc5ccccc5c4)[C@@H](O)[C@H]3O)c3ncnc(N)c23)n1 [Compound I-114] | 6.00 to 7.00 |
| Cn1ccc(-c2cn([C@@H]3O[C@H](C(=O)NC(Cc4ccccc4)c4ccccc4)[C@@H](O)[C@H]3O)c3ncnc(N)c23)n1 (stereo partly shown) [Compound I-115] | 6.00 to 7.00 |
| Cn1ccc(-c2cn([C@@H]3O[C@H](C(=O)NCCc4ccc(-c5ccccc5)cc4)[C@@H](O)[C@H]3O)c3ncnc(N)c23)n1 [Compound I-116] | 6.00 to 7.00 |
| Cc1cc(F)ccc1NC(=O)[C@H]1O[C@@H](n2cc(-c3ccn(C)n3)c3c(N)ncnc32)[C@H](O)[C@@H]1O [Compound I-117] | 6.00 to 7.00 |
| Cn1ccc(-c2cn([C@@H]3O[C@H](C(=O)Nc4cccc5nsnc45)[C@@H](O)[C@H]3O)c3ncnc(N)c23)n1 [Compound I-118] | 6.00 to 7.00 |
| COc1ccccc1[C@H](C)NC(=O)[C@H]1O[C@@H](n2cc(-c3ccn(C)n3)c3c(N)ncnc32)[C@H](O)[C@@H]1O [Compound I-119] | 6.00 to 7.00 |
| Cn1ccc(-c2cn([C@@H]3O[C@H](C(=O)NCCC4CCCCC4)[C@@H](O)[C@H]3O)c3ncnc(N)c23)n1 [Compound I-120] | 6.00 to 7.00 |
| Cn1ccc(-c2cn([C@@H]3O[C@H](C(=O)NCc4ccccc4-n4cccn4)[C@@H](O)[C@H]3O)c3ncnc(N)c23)n1 [Compound I-121] | 6.00 to 7.00 |

| SMILES | pIC50 |
| --- | --- |
| Cn1ccc(-c2cn([C@@H]3O[C@H](C(=O)Nc4ccncc4Cl)[C@@H](O)[C@H]3O)c3ncnc(N)c23)n1 [Compound I-122] | 6.00 to 7.00 |
| Cn1ccc(-c2cn([C@@H]3O[C@H](C(=O)Nc4ccc5c(c4)NC(=O)CC5)[C@@H](O)[C@H]3O)c3ncnc(N)c23)n1 [Compound I-123] | 6.00 to 7.00 |
| Cn1ccc(-c2cn([C@@H]3O[C@H](C(=O)Nc4ccc5c(c4)OCCCO5)[C@@H](O)[C@H]3O)c3ncnc(N)c23)n1 [Compound I-124] | 6.00 to 7.00 |
| Cn1ccc(-c2cn([C@@H]3O[C@H](C(=O)Nc4ccc(CN5CCS(=O)(=O)CC5)cc4)[C@@H](O)[C@H]3O)c3ncnc(N)c23)n1 [Compound I-125] | 6.00 to 7.00 |
| Cn1ccc(-c2cn([C@@H]3O[C@H](C(=O)NC4Cc5ccccc5C4)[C@@H](O)[C@H]3O)c3ncnc(N)c23)n1 [Compound I-126] | 6.00 to 7.00 |
| CN1CCN(c2ccc(NC(=O)[C@H]3O[C@@H](n4cc(-c5ccn(C)n5)c5c(N)ncnc54)[C@H](O)[C@@H]3O)nc2)CC1 [Compound I-127] | 6.00 to 7.00 |
| Cn1ccc(-c2cn([C@@H]3O[C@H](C(=O)NCCCN4CCCC4=O)[C@@H](O)[C@H]3O)c3ncnc(N)c23)n1 [Compound I-129] | 6.00 to 7.00 |
| CC(=O)Nc1ccccc1NC(=O)[C@H]1O[C@@H](n2cc(-c3ccn(C)n3)c3c(N)ncnc32)[C@H](O)[C@@H]1O [Compound I-130] | 6.00 to 7.00 |
| Cn1ccc(-c2cn([C@@H]3O[C@H](C(=O)NCc4ccc5ccccc5c4)[C@@H](O)[C@H]3O)c3ncnc(N)c23)n1 [Compound I-131] | 6.00 to 7.00 |
| Cn1ccc(-c2cn([C@@H]3O[C@H](C(=O)Nc4ccc(OC(F)F)cc4)[C@@H](O)[C@H]3O)c3ncnc(N)c23)n1 [Compound I-132] | 6.00 to 7.00 |
| Cn1ccc(-c2cn([C@@H]3O[C@H](C(=O)NCCc4ccccc4Cl)[C@@H](O)[C@H]3O)c3ncnc(N)c23)n1 [Compound I-133] | 6.00 to 7.00 |
| Cn1ccc(-c2cn([C@@H]3O[C@H](C(=O)NCCc4ccc5ccccc5c4)[C@@H](O)[C@H]3O)c3ncnc(N)c23)n1 [Compound I-134] | 6.00 to 7.00 |
| Cn1ccc(-c2cn([C@@H]3O[C@H](C(=O)Nc4ccc(C(=O)N5CCCCC5)cc4)[C@@H](O)[C@H]3O)c3ncnc(N)c23)n1 [Compound I-135] | 6.00 to 7.00 |
| CNC(=O)c1ccc(NC(=O)[C@H]2O[C@@H](n3cc(-c4ccn(C)n4)c4c(N)ncnc43)[C@H](O)[C@@H]2O)cc1 [Compound I-136] | 6.00 to 7.00 |
| CC(CCc1ccccc1)NC(=O)[C@H]1O[C@@H](n2cc(-c3ccn(C)n3)c3c(N)ncnc32)[C@H](O)[C@@H]1O (stereo partly shown) [Compound I-137] | 6.00 to 7.00 |
| Cn1ccc(-c2cn([C@@H]3O[C@H](C(=O)Nc4ccc(-n5cnnn5)cc4)[C@@H](O)[C@H]3O)c3ncnc(N)c23)n1 [Compound I-138] | 6.00 to 7.00 |
| Cn1ccc(-c2cn([C@@H]3O[C@H](C(=O)Nc4ccc(OCCN5CCOCC5)cc4)[C@@H](O)[C@H]3O)c3ncnc(N)c23)n1 [Compound I-139] | 6.00 to 7.00 |
| COc1ccc(NC(=O)[C@H]2O[C@@H](n3cc(-c4ccn(C)n4)c4c(N)ncnc43)[C@H](O)[C@@H]2O)cc1Cl [Compound I-140] | 7.00 to 8.00 |
| Cc1nc2cc(NC(=O)[C@H]3O[C@@H](n4cc(-c5ccn(C)n5)c5c(N)ncnc54)[C@H](O)[C@@H]3O)ccc2o1 [Compound I-141] | 7.00 to 8.00 |
